Source: patent US11001569B2, “6-membered heteroaromatic substituted cyanoindoline derivatives as NIK inhibitors” (Janssen Pharmaceutica NV, priority 2016, dated 2021)
Several values for one entry are separate records, joined by “and”; a condition that tells them apart may be missing. Identical values can stand only once. Like-named read-outs stand apart in the source and are kept apart here.

Tests used:
[1] = target: recombinant human NF-kappaB-inducing Kinase (NIK/MAP3K14) (Homo sapiens, UniProt Q99558); test: Inhibition of auto-phosphorylation of recombinant human NIK/MAP3K14 activity (AlphaScreen); assay type: biochemical; settings: 25 microM ATP, averaged over all measurements on all batches
Sequence of recombinant human NF-kappaB-inducing Kinase (NIK/MAP3K14) (Q99558 whole entry): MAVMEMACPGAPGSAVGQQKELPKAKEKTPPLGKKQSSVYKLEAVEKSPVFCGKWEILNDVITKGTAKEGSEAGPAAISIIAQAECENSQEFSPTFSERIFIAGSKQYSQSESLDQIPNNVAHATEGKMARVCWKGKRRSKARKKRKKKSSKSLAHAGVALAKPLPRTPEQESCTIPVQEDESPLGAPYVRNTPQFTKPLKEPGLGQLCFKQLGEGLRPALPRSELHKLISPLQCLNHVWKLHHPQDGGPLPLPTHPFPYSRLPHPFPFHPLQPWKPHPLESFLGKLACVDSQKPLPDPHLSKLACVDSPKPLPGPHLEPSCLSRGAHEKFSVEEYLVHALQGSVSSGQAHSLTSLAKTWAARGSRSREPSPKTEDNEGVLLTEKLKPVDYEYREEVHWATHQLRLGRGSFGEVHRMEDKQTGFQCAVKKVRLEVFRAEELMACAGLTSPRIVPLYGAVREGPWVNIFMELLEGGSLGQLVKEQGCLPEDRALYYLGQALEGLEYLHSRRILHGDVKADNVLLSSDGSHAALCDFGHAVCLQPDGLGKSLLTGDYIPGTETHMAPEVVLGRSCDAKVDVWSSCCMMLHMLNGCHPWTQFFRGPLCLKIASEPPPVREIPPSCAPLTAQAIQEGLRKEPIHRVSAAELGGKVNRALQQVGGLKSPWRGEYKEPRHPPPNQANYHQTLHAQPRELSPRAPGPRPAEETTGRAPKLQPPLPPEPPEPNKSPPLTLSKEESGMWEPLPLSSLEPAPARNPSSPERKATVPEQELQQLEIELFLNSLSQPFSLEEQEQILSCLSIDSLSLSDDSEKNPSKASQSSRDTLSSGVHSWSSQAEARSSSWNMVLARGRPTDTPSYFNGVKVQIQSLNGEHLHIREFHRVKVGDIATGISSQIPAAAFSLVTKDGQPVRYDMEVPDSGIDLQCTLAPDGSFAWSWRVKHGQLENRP

[2] = system: P-IKKα levels in L363 (NIK translocated multiple myeloma) cells; test: Effect of compounds on P-IKKα levels in L363 cells (Mesoscale sandwich immuno-assay); assay type: cell-based, human; settings: 2 hr treatment, averaged values, read-out: Inhibition of pIKKα_L-363 (IC50 (nM))
Method: Effect of Compounds on P-IKKα Levels in L363 (NIK Translocated Multiple Myeloma) Cells
All compounds tested were dissolved in DMSO and further dilutions were made in culture medium. Final DMSO concentration was 1% (v/v) in cell assays. The human L363 cells (ATCC) were cultured in RPMI 1640 medium supplemented with GlutaMax and 10% fetal calf serum (PAA). Cells were routinely maintained at densities of 0.2×10^6 cells per ml-1×10^6 cells per ml at 37° C. in a humidified 5% CO2 atmosphere. Cells were passaged twice a week splitting back to obtain the low density. Cells were seeded in 96 well plates (Nunc 167008) at 2×10^6 per ml media in a volume of 75 μl per well plus 25 μl 1 μg/ml recombinant human B-cell activating factor (BAFF/BLyS/TNFSF13B). Seeded cells were incubated at 37° C. in a humidified 5% CO2 atmosphere for 24 hr. Drugs and/or solvents were added (20 μl) to a final volume of 120 μl. Following 2 hr treatment plates were removed from the incubator and cell lysis was achieved by the addition of 30 μl 5× lysis buffer followed by shaking on a plate shaker at 4° C. for 10 min. At the end of this incubation lysed cells were centrifuged at 800×g for 20 min at 4° C. and the lysate was assessed for P-IKK levels by sandwich immuno-assay carried out in anti-rabbit antibody coated Mesoscale plates. Within an experiment, the results for each treatment were the mean of 2 replicate wells. For initial screening purposes, compounds were tested using an 8 point dilution curve (serial 1:3 dilutions). […] The blank incubation value was subtracted from all control and sample values. To determine the IC50 a sigmoidal curve was fitted to the plot of % inhibition of control P-IKKα levels versus Log10 compound concentration.

[3] = system: JJN-3 (NIK translocated) multiple myeloma cells; test: Antiproliferative activity on JJN-3 multiple myeloma cells (CellTiter-Glo); assay type: cell-based, human; settings: Homo sapiens, JJN-3, 96 h, JJN-3 (NIK translocated) cells, 96 hr treatment, averaged values, read-out: JJN-3 Proliferation inhibition (IC50 (nM))
How it was run: (§1)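 Cells plated at 15000 (JJN3) or 20000 (KMS12BM) per well and treated 96 h at 37° C, 5% CO2, final DMSO 0.3%, 9-point 1:3 dilutions. Viability by CellTiter-Glo luminescence; time-zero blank subtracted, growth expressed as percent of untreated control.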

[4] = system: KMS12-BM (NIK WT) multiple myeloma cells; test: Antiproliferative activity on KMS12-BM multiple myeloma cells (CellTiter-Glo); assay type: cell-based, human; settings: Homo sapiens, KMS-12-BM, 96 h, 96 hr treatment, averaged values, read-out: KMS-12 Proliferation inhibition (IC50 (nM))
How it was run: as §1

SMILES	IC50 [1] [nM]	IC50 [2] [nM]	IC50 [3] [nM]	IC50 [4] [nM]	melting point	IC50 ([2]; Homo sapiens, L-363, 2 h) [nM]
Cc1cnc(OCC2CN(C)CCO2)c(Nc2nccc(-c3cc(C#N)c4c(c3)[C@@](C)(CO)CN4)n2)c1 (single isomer, unassigned) [Compound 151]	5.5	13.8	66	> 10000	114 °C	
COCCNc1nc(OC)c(Nc2nccc(-c3cc(C#N)c4c(c3)C(C)(CO)CN4)n2)cc1Cl (stereo not shown) [Compound 2]	13.2		74	> 10000	230 °C	21.4
Cc1cc(Nc2nccc(-c3cc(C#N)c4c(c3)[C@@](C)(CO)CN4)n2)c(=O)n(CCN2CC(C)OC(C)C2)c1 (stereo partly shown) [Compound 2i]	1.8		479	5500	135 °C	1.1
C[C@]1(CO)CNc2c(C#N)cc(-c3ccnc(Nc4ccc[nH]c4=O)n3)cc21 [Compound 8i]	4.5		776	> 10000	> 250 °C	74.1
CN(C)C(=O)Cn1cc(Cl)cc(Nc2nccc(-c3cc(C#N)c4c(c3)[C@@](C)(CO)CN4)n2)c1=O [Compound 11i]	1.9		~1120	> 10000	299 °C	3.2
Cn1cc(Cl)cc(Nc2nccc(-c3cc(C#N)c4c(c3)[C@@](C)(CO)CN4)n2)c1=O [Compound 13i]	1.9		31	> 10000	306 °C	0.9
Cc1cc(Nc2nccc(-c3cc(C#N)c4c(c3)[C@@](C)(CO)CN4)n2)c(=O)n(CCN2CC(F)(F)C2)c1 [Compound 17i]	1.9		33	> 10000	190 °C	1.8
Cc1cc(Nc2nccc(-c3cc(C#N)c4c(c3)[C@@](C)(CO)CN4)n2)c(=O)n(CCN2CCCOCC2)c1 [Compound 20i]	2.3		41	> 10000	287 °C	1.5
Cc1cc(Nc2nccc(-c3cc(C#N)c4c(c3)[C@@](C)(COC(=O)C(C)C)CN4)n2)c(=O)n(CCN2CC(C)OC(C)C2)c1 (stereo partly shown) [Compound 24i]	23.4		32	> 10000	120 °C	5.5
Cc1cc(Nc2nccc(-c3cc(C#N)c4c(c3)[C@@](C)(CO)CN4)n2)c(=O)n(CC2(C)COC2)c1 [Compound 29i]	3		100	> 10000	129 °C	3.7
C[C@]1(CO)CNc2c(C#N)cc(-c3ccnc(Nc4cc(Cl)cnc4C4CC4)n3)cc21 [Compound 46]	3		28	~7940	234 °C	4.7
COc1nc(/C=C/C(=O)N(C)C)ccc1Nc1nccc(-c2cc(C#N)c3c(c2)[C@@](C)(CO)CN3)n1 [Compound 48]	2.9		~295	> 10000	192 °C	1.2
COc1nc(CCC(=O)N(C)C)ccc1Nc1nccc(-c2cc(C#N)c3c(c2)[C@@](C)(CO)CN3)n1 [Compound 49]	1.6		35	~9330	195 °C	0.8
COCCN(C)c1nc(C)c(Nc2nccc(-c3cc(C#N)c4c(c3)[C@@](C)(CO)CN4)n2)cc1Cl [Compound 51]	3		31	> 10000	152 °C	2.8
COc1ncc(C)cc1Nc1nccc(-c2cc(C#N)c3c(c2)[C@@](C)(CO)CN3)n1 [Compound 59]	2.5		16	> 10000	234 °C and 237 °C	13.2
COCCOc1ncc(F)cc1Nc1nccc(-c2cc(C#N)c3c(c2)[C@@](C)(CO)CN3)n1 [Compound 61]	3		389	> 10000	186 °C	19.5
CCCc1ncc(C#N)cc1Nc1nccc(-c2cc(C#N)c3c(c2)[C@@](C)(CO)CN3)n1 [Compound 63]	2.9		98	> 10000	193 °C	17.4
C[C@]1(CO)CNc2c(C#N)cc(-c3ccnc(Nc4cc(C#N)cnc4CCC4CC4)n3)cc21 [Compound 64]	4.7		35	6460	145 °C	27.5
COCCCc1ncc(C#N)cc1Nc1nccc(-c2cc(C#N)c3c(c2)[C@@](C)(CO)CN3)n1 [Compound 65]	4.5		263	> 10000	158 °C	15.5

These reach a lower IC50 [1]. Values come first.

IC50 [1] [nM]	IC50 [2] [nM]	IC50 [3] [nM]	IC50 [4] [nM]	melting point	IC50 ([2]; Homo sapiens, L-363, 2 h) [nM]	SMILES
1.1		347	3890	149 °C	2.6	Cc1cc(Nc2nccc(-c3cc(C#N)c4c(c3)[C@@](C)(CO)CN4)n2)c(=O)n(CCN2CC(F)C2)c1 [Compound 1i]
1.3		~1780	> 10000	252 °C	3.3	C[C@]1(CO)CNc2c(C#N)cc(-c3ccnc(Nc4cc(F)cn(CCN5CCOCC5)c4=O)n3)cc21 [Compound 3i]
1.3		316	> 10000	235 °C	8.9	Cc1cc(Nc2nccc(-c3cc(C#N)c4c(c3)[C@@](C)(CO)CN4)n2)c(=O)n(Cc2nccn2C)c1 [Compound 4i]
1		275	5130	194 °C	10	Cc1cc(Nc2nccc(-c3cc(C#N)c4c(c3)[C@@](C)(CO)CN4)n2)c(=O)n(Cc2nccn2C2CC2)c1 [Compound 6i]
1		120	> 10000	313 °C	8.5	Cc1cc(Nc2nccc(-c3cc(C#N)c4c(c3)[C@@](C)(CO)CN4)n2)c(=O)n(C)c1 [Compound 9i]
1.1		18	813	198 °C	0.9	CN(C)CCn1cc(Cl)cc(Nc2nccc(-c3cc(C#N)c4c(c3)[C@@](C)(CO)CN4)n2)c1=O [Compound 12i]
1.2		25	> 10000	232 °C	11	Cc1cc(Nc2nccc(-c3cc(C#N)c4c(c3)[C@@](C)(CO)CN4)n2)c(=O)n(CCN2CC(C)NC(C)C2)c1 (stereo partly shown) [Compound 16i]
0.6		25	> 10000	148 °C	2.5	Cc1cc(Nc2nccc(-c3cc(C#N)c4c(c3)[C@@](C)(CO)CN4)n2)c(=O)n(CCN2CCN(C)CC2)c1 [Compound 19i]
1.3		145	6610	247 °C	4.2	Cc1ncc(C#N)cc1Nc1nccc(-c2cc(C#N)c3c(c2)[C@@](C)(CO)CN3)n1 [Compound 50]
~1.48		251	871	281 °C	0.7	CN(C)C(=O)COc1ncc(Cl)cc1Nc1nccc(-c2cc(C#N)c3c(c2)[C@@](C)(CO)CN3)n1 [Compound 52]
